# Measurements: patent US12509444B2, “Compounds and methods for CD73 modulation and indications therefor” (Plexxikon Inc., priority 2019, dated 2025)
# pIC50: −log10 of the molar value.
# How the values were obtained:
# [1] = target: T1, Human CD73 (amino acid residues 27-549) (Homo sapiens, UniProt P21589); test: CD73 enzymatic assay (luciferase-based indirect assay, CellTiter-Glo); format: biochemical; details: 0.4 nM CD73, 150 μM AMP, 1 hour at room temperature
# T1 construct: Human CD73 (amino acid residues 27-549); His tag (N); made in house; host or cells: E. coli
# T1 sequence (P21589 27-549): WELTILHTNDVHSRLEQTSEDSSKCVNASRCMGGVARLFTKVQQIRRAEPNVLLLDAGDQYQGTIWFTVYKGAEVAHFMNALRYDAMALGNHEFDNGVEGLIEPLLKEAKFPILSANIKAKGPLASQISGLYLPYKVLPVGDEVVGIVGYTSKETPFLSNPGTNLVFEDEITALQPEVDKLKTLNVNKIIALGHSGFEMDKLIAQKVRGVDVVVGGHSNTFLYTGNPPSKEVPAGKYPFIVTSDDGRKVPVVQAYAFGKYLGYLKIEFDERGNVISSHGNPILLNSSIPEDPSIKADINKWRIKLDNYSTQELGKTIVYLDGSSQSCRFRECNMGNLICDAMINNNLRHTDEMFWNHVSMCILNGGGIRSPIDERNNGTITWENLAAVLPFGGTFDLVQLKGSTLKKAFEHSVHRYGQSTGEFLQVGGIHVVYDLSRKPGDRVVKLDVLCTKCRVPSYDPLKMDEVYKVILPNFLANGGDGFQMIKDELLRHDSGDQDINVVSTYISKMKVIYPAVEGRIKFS
# Outline: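 His-tagged human CD73 (27-549) from E. coli, 0.4 nM, with 150 μM AMP in 50 mM HEPES pH 7.4, 0.01% Tween 20; 1 h at room temperature. AMP remaining read by CellTiter-Glo 2.0 luminescence with 1 μM final ATP after 30 min. IC50 from nonlinear regression of % inhibition.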
# human CD73 = target: T2, human CD73 (Homo sapiens, UniProt P21589); test: Inhibitor activity against CD73 in cell based assay (CD73 expressing CHO-K1 cells); details: CHO-K1 cells expressing human CD73, 150 μM AMP, 4 hours of incubation; read-out: CHO-K1 CELL VARIANT: CD73 IC50
# T2 construct: expressed in transfected cells
# T2 sequence (P21589 27-549): T1 sequence (P21589 27-549)
# Description: Determine Inhibitor Activity Against CD73 in Cell Based Assay
# CD73 expressing CHO-K1 cell clones were generated upon stable transfection of a plasmid expressing human CD73 under the control of CMV promoter. Cells were selected in Ham's F-12K (Kaighn's) media supplemented with 10% fetal bovine serum and 1 mg/ml G418 at 37° C. in a humidified incubator supplied with 5% CO2. The assays were performed as follows. Cells were seeded in a 96 well plate in 50 μL of culture media at a density of 1×10^4 per well. Compound at a maximal concentration of 5 mM was serially diluted 1:3 in DMSO for a total of 8 point titration. A 2 μL aliquot of each dilution point was added to 248 μL culture media and 25 µL was added to each well, providing 10 μM compound at the maximum concentration point. AMP was diluted in culture media and 25 μL was added to each well with a final concentration of 150 μM. 4 wells containing 0.2% DMSO treated cells and AMP served as high controls and 4 wells containing media only with 0.2% DMSO and AMP served as low controls. After 4 hours of incubation, 20 μL of the supernatant was transferred to a 384 well plate. AMP level in supernatant was measured indirectly by adding 5 μL of CellTiter-Glo® 2.0 reagent and 5 μL of ATP with a final concentration of 1 μM. Following incubation of plate at room temperature for 30 minutes, luminescent signal was read on a Tecan plate reader. The percentage inhibition at individual concentrations relative to high and low controls was calculated. The data were analyzed by using nonlinear regression to generate IC50 values.
SMILES,pIC50 [1],pIC50 (human CD73)
"N#CC1CCC(NC(=O)O[C@@H]2CCN(c3cn[nH]c(=O)c3Cl)C2)CC1 (stereo partly drawn) [P-0114, (R)-1-(5-chloro-6-oxo-1,6-dihydropyridazin-4-yl)pyrrolidin-3-yl (4-cyanocyclohexyl)carbamate]",5.00 to 9.00,5.00 to 9.00
"O=C(NC1CC2(CCC2)C1)O[C@@H]1CCN(c2cn[nH]c(=O)c2Cl)C1 [P-0115, (R)-1-(5-chloro-6-oxo-1,6-dihydropyridazin-4-yl)pyrrolidin-3-yl spiro[3.3]heptan-2-ylcarbamate]",5.00 to 9.00,5.00 to 9.00
"CS(=O)(=O)NC1CCC(NC(=O)O[C@@H]2CCN(c3cn[nH]c(=O)c3Cl)C2)CC1 (stereo partly drawn) [P-0116, (R)-1-(5-chloro-6-oxo-1,6-dihydropyridazin-4-yl)pyrrolidin-3-yl (4-(methylsulfonamido)cyclohexyl)carbamate]",5.00 to 9.00,5.00 to 9.00
"O=C(NC1CC2CCC1O2)O[C@@H]1CCN(c2cn[nH]c(=O)c2Cl)C1 (stereo partly drawn) [P-0117, (R)-1-(5-chloro-6-oxo-1,6-dihydropyridazin-4-yl)pyrrolidin-3-yl (7-oxabicyclo[2.2.1]heptan-2-yl)carbamate]",5.00 to 9.00,5.00 to 9.00
"O=C(NC1(C2CC2)CC1)O[C@@H]1CCN(c2cn[nH]c(=O)c2Cl)C1 [P-0118, (R)-1-(5-chloro-6-oxo-1,6-dihydropyridazin-4-yl)pyrrolidin-3-yl [1,1′-bi(cyclopropan)]-1-ylcarbamate]",5.00 to 9.00,5.00 to 9.00
"O=C(NC1CC(O)C1)O[C@@H]1CCN(c2cn[nH]c(=O)c2Cl)C1 (stereo partly drawn) [P-0119, (R)-1-(5-chloro-6-oxo-1,6-dihydropyridazin-4-yl)pyrrolidin-3-yl (3-hydroxycyclobutyl)carbamate]",5.00 to 9.00,5.00 to 9.00
"O=C(NC1CCN(C2CCCC2)CC1)O[C@@H]1CCN(c2cn[nH]c(=O)c2Cl)C1 [P-0121, (R)-1-(5-chloro-6-oxo-1,6-dihydropyridazin-4-yl)pyrrolidin-3-yl (1-cyclopentylpiperidin-4-yl)carbamate]",5.00 to 9.00,5.00 to 9.00
"CC(C)N1CCC(NC(=O)O[C@@H]2CCN(c3cn[nH]c(=O)c3Cl)C2)CC1 [P-0122, (R)-1-(5-chloro-6-oxo-1,6-dihydropyridazin-4-yl)pyrrolidin-3-yl (1-isopropylpiperidin-4-yl)carbamate]",5.00 to 9.00,5.00 to 9.00
"O=C(NC1CCN(c2ncccn2)CC1)O[C@@H]1CCN(c2cn[nH]c(=O)c2Cl)C1 [P-0123, (R)-1-(5-chloro-6-oxo-1,6-dihydropyridazin-4-yl)pyrrolidin-3-yl (1-(pyrimidin-2-yl)piperidin-4-yl)carbamate]",5.00 to 9.00,5.00 to 9.00
"CC(C)(C)OC(=O)NC1CCC(NC(=O)O[C@@H]2CCN(c3cn[nH]c(=O)c3Cl)C2)CC1 (stereo partly drawn) [P-0124, (R)-tert-butyl (1-(5-chloro-6-oxo-1,6-dihydropyridazin-4-yl)pyrrolidin-3-yl) cyclohexane-1,4-diyldicarbamate]",5.00 to 9.00,5.00 to 9.00
"NC1CCC(NC(=O)O[C@@H]2CCN(c3cn[nH]c(=O)c3Cl)C2)CC1 (stereo partly drawn) [P-0125, (R)-1-(5-chloro-6-oxo-1,6-dihydropyridazin-4-yl)pyrrolidin-3-yl (4-aminocyclohexyl)carbamate]",5.00 to 9.00,5.00 to 9.00
"N#Cc1c(N2CC[C@@H](OC(=O)NC3CCCCC3)C2)cn[nH]c1=O [P-0127, (R)-1-(5-cyano-6-oxo-1,6-dihydropyridazin-4-yl)pyrrolidin-3-yl cyclohexylcarbamate]",5.00 to 9.00,5.00 to 9.00
"CS(=O)(=O)N[C@H]1CC[C@@H](NC(=O)O[C@@H]2CCN(c3cn[nH]c(=O)c3Cl)C2)CC1 [P-0128, (R)-1-(5-chloro-6-oxo-1,6-dihydropyridazin-4-yl)pyrrolidin-3-yl ((1s,4S)-4-(methylsulfonamido)cyclohexyl)carbamate]",5.00 to 9.00,5.00 to 9.00
"CS(=O)(=O)N[C@H]1CC[C@H](NC(=O)O[C@@H]2CCN(c3cn[nH]c(=O)c3Cl)C2)CC1 [P-0129, (R)-1-(5-chloro-6-oxo-1,6-dihydropyridazin-4-yl)pyrrolidin-3-yl ((1r,4R)-4-(methylsulfonamido)cyclohexyl)carbamate]",5.00 to 9.00,5.00 to 9.00

# The remaining lines, values ahead:
pIC50 [1],pIC50 (human CD73),SMILES
4.00 to 5.00,4.00 to 5.00,"O=C(NC1CCCCC1)O[C@@H]1CCN(c2cnn(-c3cccc(C(=O)O)c3)c(=O)c2Cl)C1 [P-0130, (R)-3-(5-chloro-4-(3-((cyclohexylcarbamoyl)oxy)pyrrolidin-1-yl)-6-oxopyridazin-1(6H)-yl)benzoic acid]"
5.00 to 9.00,5.00 to 9.00,"O=C(N[C@H]1CC[C@H](O)CC1)O[C@@H]1CCN(c2cn[nH]c(=O)c2Cl)C1 [P-0131, (R)-1-(5-chloro-6-oxo-1,6-dihydropyridazin-4-yl)pyrrolidin-3-yl ((1r,4R)-4-hydroxycyclohexyl)carbamate]"
5.00 to 9.00,5.00 to 9.00,"O=C(N[C@H]1CCCOC1)O[C@@H]1CCN(c2cn[nH]c(=O)c2Cl)C1 [P-0132, (R)-1-(5-chloro-6-oxo-1,6-dihydropyridazin-4-yl)pyrrolidin-3-yl ((S)-tetrahydro-2H-pyran-3-yl)carbamate]"
5.00 to 9.00,5.00 to 9.00,"CC1(NC(=O)O[C@@H]2CCN(c3cn[nH]c(=O)c3Cl)C2)CCOCC1 [P-0133, (R)-1-(5-chloro-6-oxo-1,6-dihydropyridazin-4-yl)pyrrolidin-3-yl (4-methyltetrahydro-2H-pyran-4-yl)carbamate]"
5.00 to 9.00,5.00 to 9.00,"O=C(NC1(C(F)(F)F)CC1)O[C@@H]1CCN(c2cn[nH]c(=O)c2Cl)C1 [P-0134, (R)-1-(5-chloro-6-oxo-1,6-dihydropyridazin-4-yl)pyrrolidin-3-yl (1-(trifluoromethyl)cyclopropyl) carbamate]"
5.00 to 9.00,5.00 to 9.00,"O=C(N[C@@H]1CCN(c2cn[nH]c(=O)c2Cl)C1)O[C@@H]1CCN(c2cn[nH]c(=O)c2Cl)C1 [P-0135, (R)-1-(5-chloro-6-oxo-1,6-dihydropyridazin-4-yl)pyrrolidin-3-yl ((R)-1-(5-chloro-6-oxo-1,6-dihydropyridazin-4-yl)pyrrolidin-3-yl)carbamate]"
5.00 to 9.00,5.00 to 9.00,"O=C(N[C@H]1CCN(c2cn[nH]c(=O)c2Cl)C1)O[C@@H]1CCN(c2cn[nH]c(=O)c2Cl)C1 [P-0136, (R)-1-(5-chloro-6-oxo-1,6-dihydropyridazin-4-yl)pyrrolidin-3-yl ((S)-1-(5-chloro-6-oxo-1,6-dihydropyridazin-4-yl)pyrrolidin-3-yl)carbamate]"
5.00 to 9.00,5.00 to 9.00,"Cn1cc(C2(NC(=O)O[C@@H]3CCN(c4cn[nH]c(=O)c4Cl)C3)CC2)cn1 [P-0137, (R)-1-(5-chloro-6-oxo-1,6-dihydropyridazin-4-yl)pyrrolidin-3-yl (1-(1-methyl-1H-pyrazol-4-yl)cyclopropyl)carbamate]"
5.00 to 9.00,5.00 to 9.00,"CC1(OC(=O)NC2CCC(F)(F)CC2)CCN(c2cn[nH]c(=O)c2Cl)C1 (centres unmarked) [P-0138, 1-(5-chloro-6-oxo-1,6-dihydropyridazin-4-yl)-3-methylpyrrolidin-3-yl (4,4-difluorocyclohexyl)carbamate]"
5.00 to 9.00,5.00 to 9.00,"C[C@H]1CN(c2cn[nH]c(=O)c2Cl)C[C@@H]1OC(=O)NC1CCC(F)(F)CC1 [P-0139, (3R,4S)-1-(5-chloro-6-oxo-1,6-dihydropyridazin-4-yl)-4-methylpyrrolidin-3-yl (4,4-difluorocyclohexyl)carbamate]"
5.00 to 9.00,4.00 to 5.00,"C[C@@H]1CN(c2cn[nH]c(=O)c2Cl)C[C@@H]1OC(=O)NC1CCC(F)(F)CC1 [P-0140, (3R,4R)-1-(5-chloro-6-oxo-1,6-dihydropyridazin-4-yl)-4-methylpyrrolidin-3-yl (4,4-difluorocyclohexyl)carbamate]"
